Reference: ChEMBL document CHEMBL3992491, “Discovery, structure-activity relationship studies, and anti-nociceptive effects of N-(1,2,3,4-tetrahydro-1-isoquinolinylmethyl)benzamides as novel opioid receptor agonists” (Eur J Med Chem, 2017)
Active and inactive are the calls of the source. The calls are words filed in the database; no cut-off is given here.

Assays:
Mu-type opioid receptor [1] = target: T1, Mu-type opioid receptor (Homo sapiens, UniProt P35372); assay: Displacement of [3H]naloxone from recombinant human MOR expressed in HEK cell membranes incubated for 60 mins
T1 sequence (P35372 whole entry): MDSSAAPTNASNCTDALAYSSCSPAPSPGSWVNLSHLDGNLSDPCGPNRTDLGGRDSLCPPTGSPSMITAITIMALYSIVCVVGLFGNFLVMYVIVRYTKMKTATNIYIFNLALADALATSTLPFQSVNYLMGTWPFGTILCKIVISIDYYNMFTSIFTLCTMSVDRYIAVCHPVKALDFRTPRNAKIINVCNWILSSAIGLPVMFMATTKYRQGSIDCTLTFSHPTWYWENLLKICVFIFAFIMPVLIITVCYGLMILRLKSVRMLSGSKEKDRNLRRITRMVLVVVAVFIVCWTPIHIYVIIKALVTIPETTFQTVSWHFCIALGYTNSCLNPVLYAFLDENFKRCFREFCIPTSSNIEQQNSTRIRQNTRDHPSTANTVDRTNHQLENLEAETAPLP

Mu-type opioid receptor [2] = target: T1, Mu-type opioid receptor; assay: Agonist activity at human MOR expressed in HEK293 cells assessed as inhibition of forskolin-induced adenylyl cyclase-mediated cAMP accumulation after 30 mins by HTRF assay; format: functional, cell-based
[3] = target: Delta-type opioid receptor (Homo sapiens, UniProt P41143); assay: Agonist activity at human DOR expressed in HEK293 cells assessed as inhibition of forskolin-induced adenylyl cyclase-mediated cAMP accumulation after 30 mins by HTRF assay; format: functional, cell-based
Chain of Delta-type opioid receptor (P41143 whole entry): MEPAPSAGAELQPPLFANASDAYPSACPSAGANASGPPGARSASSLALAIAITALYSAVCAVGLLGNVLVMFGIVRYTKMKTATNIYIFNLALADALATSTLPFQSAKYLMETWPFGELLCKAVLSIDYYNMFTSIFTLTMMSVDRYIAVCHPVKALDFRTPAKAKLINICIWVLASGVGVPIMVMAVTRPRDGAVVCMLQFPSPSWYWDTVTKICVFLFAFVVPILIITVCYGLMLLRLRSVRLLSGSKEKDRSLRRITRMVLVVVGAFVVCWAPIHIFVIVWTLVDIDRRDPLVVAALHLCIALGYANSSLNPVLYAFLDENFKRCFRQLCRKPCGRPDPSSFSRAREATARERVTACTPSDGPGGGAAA

[4] = target: T2, Kappa-type opioid receptor (Homo sapiens, UniProt P41145); assay: Agonist activity at human KOR expressed in HEK293 cells assessed as inhibition of forskolin-induced adenylyl cyclase-mediated cAMP accumulation after 30 mins by HTRF assay; format: functional, cell-based
T2 sequence (P41145 whole entry): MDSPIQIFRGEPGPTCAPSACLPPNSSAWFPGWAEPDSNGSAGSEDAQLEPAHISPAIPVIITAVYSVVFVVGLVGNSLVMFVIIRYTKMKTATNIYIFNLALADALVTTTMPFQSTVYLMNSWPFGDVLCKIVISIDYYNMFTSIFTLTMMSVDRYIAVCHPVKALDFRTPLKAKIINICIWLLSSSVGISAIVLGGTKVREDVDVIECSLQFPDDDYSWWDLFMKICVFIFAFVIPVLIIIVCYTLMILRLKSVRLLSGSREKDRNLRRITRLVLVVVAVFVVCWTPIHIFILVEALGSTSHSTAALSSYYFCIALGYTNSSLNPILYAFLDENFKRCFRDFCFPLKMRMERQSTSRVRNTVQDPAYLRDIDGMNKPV

Mu-type opioid receptor [5] = target: T1, Mu-type opioid receptor; assay: Agonist activity at myc-tagged MOR (unknown origin) expressed in mouse AtT-20 cells harboring GIRK1/GIRK2 channels assessed as stimulation of membrane potential hyperpolarization at 1 uM by FLIPR assay; format: cell-based
Mu-type opioid receptor [6] = target: T1, Mu-type opioid receptor; assay: Agonist activity at myc-tagged MOR (unknown origin) expressed in mouse AtT-20 cells harboring GIRK1/GIRK2 channels assessed as membrane potential hyperpolarization at 1 uM in presence of naloxone by FLIPR membrane potential; format: cell-based
[7] = Drug uptake in […] mouse plasma at 3 mg/kg, iv measured after 0.8 hrs by LC-MS/MS analysis; format: ADME, organism-based
[8] = Drug uptake in […] mouse brain at 3 mg/kg, iv measured after 0.8 hrs by LC-MS/MS analysis; format: ADME, organism-based; settings: read-out: Drug uptake
[9] = Ratio of drug level in brain to plasma in […] mouse at 3 mg/kg, iv measured after 0.8 hrs; format: ADME, organism-based; settings: read-out: BPR
Mus musculus [10] = assay: Antinociceptive activity in B6 mouse assessed as AUC of thermal withdrawal effect at 3 mg/kg, iv measured at every 10 mins for 1 hr by tail flick assay; format: functional, organism-based
Mus musculus [11] = assay: Antinociceptive activity in iv dosed B6 mouse assessed as increase in tail flick latency at 3 mg/kg, iv measured at every 10 mins for 1 hr; format: functional
Mus musculus [12] = assay: Antinociceptive activity in iv dosed B6 mouse assessed as increase in tail flick latency at 3 mg/kg, iv measured at every 10 mins for 1 hr in presence of opioid antagonist naloxone; format: functional, organism-based
[13] = target: T2, Kappa-type opioid receptor; assay: Agonist activity at human KOR expressed in HEK293 cells assessed as inhibition of forskolin-induced adenylyl cyclase-mediated cAMP accumulation at 1 uM after 30 mins in presence of KOR antagonist nor-binaltorphimine by HTRF assay; format: functional, cell-based

| Structure (SMILES) | Ki (Mu-type opioid receptor [1]) [nM] | IC50 (Mu-type opioid receptor [2]) [nM] | Imax (Mu-type opioid receptor [2]) [%] | IC50 [4] [nM] | Imax [4] [%] | IC50 ([3]; hek293) | also measured |
| --- | --- | --- | --- | --- | --- | --- | --- |
| CCc1ccc(C(=O)NCC2c3ccccc3CCN2C)cc1 (configuration not stated) | 2.27 | 3280 | 61.9 | 490 | 26.3 |  | Imax [3]: 22.1%; IC50 ([3]; read-out: IC50): 190 nM |
| CCc1ccc(C(=O)NCC2NCCc3ccccc32)cc1 (configuration not stated) | 4.65 | 310 | 63.9 | 570 | 29 | Not Active |  |
| COc1ccc(C(=O)NCC2NCCc3ccccc32)cc1 (configuration not stated) |  | 1580 |  | 50 | 21.8 | Not Active |  |
| CN1CCc2ccccc2C1CNC(=O)c1ccc(Cl)c(Cl)c1 (configuration not stated) | 6.91 | 50 | 69.5 | 440 | 28.3 | Not Active | Activity (Mu-type opioid receptor [5]): 20%; Activity (Mu-type opioid receptor [6]): inactive; concentration at 0.8 h [7]: 2610 ng/mL; concentration at 0.8 h [8]: 11700 ng/g; Kp at 0.8 h [9]: 4.5; AUC (Mus musculus [10]): 371 min.sec; ED50 (Mus musculus [11]): 1.06 mg/kg; Activity (Mus musculus [12]): inactive; Activity [13]: inactive |
| O=C(NCC1NCCc2ccccc21)c1cccc(Cl)c1 (configuration not stated) |  | 2030 | 78.2 | 1120 | 26.9 |  | Imax [3]: 21.1%; IC50 ([3]; read-out: IC50): 170 nM |
| O=C(NCC1NCCc2ccccc21)c1ccc(Cl)cc1 (configuration not stated) |  | 220 |  | 90 | 35.1 |  | Imax [3]: 24.1%; IC50 ([3]; read-out: IC50): 4180 nM |
| Cc1ccc(C(=O)NCC2c3ccccc3CCN2CCCl)cc1 (configuration not stated) |  | 200 | 67.8 | 2940 | 30 | Not Active |  |
| Cc1ccc(C(=O)NCC2c3ccccc3CCN2C)cc1 (configuration not stated) | 5.28 | 650 | 72.4 | 140 | 27.1 | Not Active |  |
| Cc1ccc(C(=O)NCC2NCCc3ccccc32)cc1 (configuration not stated) | 6.47 |  |  |  |  |  |  |
| CCCCN1CCc2ccccc2C1CNC(=O)c1ccc(C)cc1 (configuration not stated) |  | 1330 | 69.3 | 780 | 24.1 | Not Active |  |
| O=C(NCC1c2ccccc2CCN1S(=O)(=O)c1ccc(Br)cc1OC(F)(F)F)C1CCCCC1 (configuration not stated) |  |  |  |  |  |  | concentration at 0.8 h [7]: 1290 ng/mL; concentration at 0.8 h [8]: 1440 ng/g; Kp at 0.8 h [9]: 1.1 |
| O=C(NCC1NCCc2ccccc21)c1ccc(Cl)c(Cl)c1 (configuration not stated) | 54.3 | 230 |  | 810 | 27.5 | Not Active |  |
| Cc1ccc(C(=O)NCC2c3ccccc3CCN2C)cc1C (configuration not stated) | 30.8 | 80 | 69.3 | 80 | 34.6 | Not Active | Activity (Mu-type opioid receptor [5]): 20%; Activity (Mu-type opioid receptor [6]): inactive; concentration at 0.8 h [7]: 1460 ng/mL; concentration at 0.8 h [8]: 7420 ng/g; Kp at 0.8 h [9]: 5.1; AUC (Mus musculus [10]): 268 min.sec; Activity (Mus musculus [12]): inactive |
| O=C(NCC1NCCc2ccccc21)c1ccc(OC(F)(F)F)cc1 (configuration not stated) |  | 1220 |  | 260 | 38.2 |  | Imax [3]: 22.7%; IC50 ([3]; read-out: IC50): 40 nM |
| Cc1ccc(C(=O)NCC2NCCc3ccccc32)cc1C (configuration not stated) | 36.4 | 290 |  | 8930 | 27 | Not Active |  |
| Cc1cccc(C(=O)NCC2NCCc3ccccc32)c1 (configuration not stated) |  | 1270 | 68.3 | 140 | 26.6 | Not Active |  |
| O=C(NCC1NCCc2ccccc21)c1ccc(F)cc1 (configuration not stated) |  | 830 |  | 18600 | 38.9 |  | Imax [3]: 22%; IC50 ([3]; read-out: IC50): 40 nM |
| C[C@@H](NC(=O)[C@@H](N)Cc1ccc(O)cc1)C(=O)NCC(=O)N(C)[C@@H](Cc1ccccc1)C(=O)NCCO |  |  | 82.4 |  |  |  |  |
